Values joined by “and” are separate entries in the source; they are usually repeats but may differ in a detail not shown here. Identical values can stand only once.
What was measured:
Type in all cases: binding
[1] = biological target: T1, 14-3-3β/CFTRpS753pS768 complex (Homo sapiens, UniProt P13569+P31946); assay: Dose-response fluorescence polarization (FP) assay, compound titration; details: for FP signal: With 14-3-3
T1 construct: His6 (cleaved yes); made in house; peptide synthetic
Method in brief: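 Compounds were titrated in two-fold dilutions against 10 μM 14-3-3β and FITC-CFTR pS753pS768 peptide (100 nM or 10 nM). Buffer: 10 mM HEPES pH 7.4, 150 mM NaCl, 0.1% Tween20, 1 mg/mL BSA. Polarization was read at ex 485/em 535 nm, and EC50 was derived from a four-parameter variable-slope fit.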

[2] = biological target: T2, FITC-labeled CFTRpS753pS768 peptide (no 14-3-3) (Homo sapiens, UniProt P13569); assay: Dose-response FP control assay in the absence of 14-3-3; details: No 14-3-3
T2 construct: made in house; host or cells: synthetic peptide
T2 sequence (P13569 747-774 limits assumed): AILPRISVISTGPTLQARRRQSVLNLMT
Method in brief: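 Control run without 14-3-3: FITC-CFTR pS753/pS768 peptide (100 nM or 10 nM) with compound titrated in twofold dilutions in 10 mM HEPES pH 7.4, 150 mM NaCl, 0.1% Tween20, 1 mg/mL BSA. Fluorescence polarization read at ex 485/em 535 nm, background subtracted, n = 3. Curves fitted by four-parameter log(agonist) vs. response.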

[3] = biological target: T1, 14-3-3β/CFTRpS753pS768 complex; assay: FP assay, 14-3-3β titration at constant compound concentration (apparent KD); details: for FP signal, 14-3-3β titration: replicates

T1 sequence (P31946 whole entry): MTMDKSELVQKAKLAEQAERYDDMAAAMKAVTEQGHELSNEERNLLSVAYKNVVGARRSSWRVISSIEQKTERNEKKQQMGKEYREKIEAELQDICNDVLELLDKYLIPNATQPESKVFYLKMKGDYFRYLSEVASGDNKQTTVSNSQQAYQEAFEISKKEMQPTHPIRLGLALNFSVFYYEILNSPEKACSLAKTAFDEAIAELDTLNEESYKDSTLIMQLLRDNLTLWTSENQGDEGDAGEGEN

N=C(N)NCCCC1NC(=O)C(CCC(N)=O)NC(=O)C(CCCNC(=N)N)NC(=O)C2Cc3ccccc3CN2Cc2cccc(c2)-c2ccccc2CNC1=O (centres unmarked) [CY007493]
EC50 ([1]; 14-3-3β 10 μM, labeled CFTRpS753pS768 100 nM, read-out: EC50): 637 µM | FP signal ([1]; compound 324.2 pM): 2 | FP signal ([1]; compound 648.5 pM): 1 | FP signal ([1]; compound 1.297e-9 M): 2 | FP signal ([1]; compound 2.59399e-9 M): 3 | FP signal ([1]; compound 5.18799e-9 M): 3 | FP signal ([1]; compound 1.0376e-8 M): 3 | FP signal ([1]; compound 2.0752e-8 M): 3 | FP signal ([1]; compound 4.15039e-8 M): 3 | FP signal ([1]; compound 8.30078e-8 M): 2 | FP signal ([1]; compound 1.66016e-7 M): 5 | FP signal ([1]; compound 3.32031e-7 M): 4 | FP signal ([1]; compound 6.64062e-7 M): 3 | FP signal ([1]; compound 1.32813e-6 M): 4 | FP signal ([1]; compound 2.65625e-6 M): 5 | FP signal ([1]; compound 5.3125e-6 M): 6 | FP signal ([1]; compound 1.0625e-5 M): 4 | FP signal ([1]; compound 2.125e-5 M): 10 | FP signal ([1]; compound 4.25e-5 M): 18 | FP signal ([1]; compound 8.5e-5 M): 37 | FP signal ([1]; compound 0.00034 M): 117 | FP signal ([1]; compound 0.00068 M): 184 | FP signal ([1]; compound […]): 71 | FP signal ([2]; compound 324.2 pM): 2 | FP signal ([2]; compound 648.5 pM): 1 | FP signal ([2]; compound 1.297e-9 M): 2 | FP signal ([2]; compound 2.59399e-9 M): 3 | FP signal ([2]; compound 5.18799e-9 M): 3 | FP signal ([2]; compound 1.0376e-8 M): 3 | FP signal ([2]; compound 2.0752e-8 M): 3 | FP signal ([2]; compound 4.15039e-8 M): 3 | FP signal ([2]; compound 8.30078e-8 M): 2 | FP signal ([2]; compound 1.66016e-7 M): 5 | FP signal ([2]; compound 3.32031e-7 M): 4 | FP signal ([2]; compound 6.64062e-7 M): 3 | FP signal ([2]; compound 1.32813e-6 M): 4 | FP signal ([2]; compound 2.65625e-6 M): 5 | FP signal ([2]; compound 5.3125e-6 M): 6 | FP signal ([2]; compound 1.0625e-5 M): 4 | FP signal ([2]; compound 2.125e-5 M): 10 | FP signal ([2]; compound 4.25e-5 M): 18 | FP signal ([2]; compound 8.5e-5 M): 37 | FP signal ([2]; compound 0.00034 M): 117 | FP signal ([2]; compound 0.00068 M): 184 | FP signal ([2]; compound […]): 71 | FP signal, 14-3-3β titration ([3]; 14-3-3β 1.90735e-9 M, FC-A + CY compound): 2 and 4 and 0 | FP signal, 14-3-3β titration ([3]; 14-3-3β 1.90735e-9 M, compound 100 μM): -2 | FP signal, 14-3-3β titration ([3]; 14-3-3β 3.8147e-9 M, FC-A + CY compound): 2 and 1 and -1 | FP signal, 14-3-3β titration ([3]; 14-3-3β 3.8147e-9 M, compound 100 μM): 2 and 3 and 1 | FP signal, 14-3-3β titration ([3]; 14-3-3β 7.62939e-9 M, FC-A + CY compound): 2 and 1 and 0 | FP signal, 14-3-3β titration ([3]; 14-3-3β 7.62939e-9 M, compound 100 μM): 1 (2×) and 4 | FP signal, 14-3-3β titration ([3]; 14-3-3β 1.52588e-8 M, FC-A + CY compound): 7 and 4 and 6 | FP signal, 14-3-3β titration ([3]; 14-3-3β 1.52588e-8 M, compound 100 μM): 5 (2×) and 3 | FP signal, 14-3-3β titration ([3]; 14-3-3β 3.05176e-8 M, FC-A + CY compound): 3 and 4 and 5 | FP signal, 14-3-3β titration ([3]; 14-3-3β 3.05176e-8 M, compound 100 μM): 3 and 1 (2×) | FP signal, 14-3-3β titration ([3]; 14-3-3β 6.10352e-8 M, FC-A + CY compound): 6 and 9 (2×) | FP signal, 14-3-3β titration ([3]; 14-3-3β 6.10352e-8 M, compound 100 μM): 5 and 2 (2×) | FP signal, 14-3-3β titration ([3]; 14-3-3β 1.2207e-7 M, FC-A + CY compound): 10 and 5 and 8 | FP signal, 14-3-3β titration ([3]; 14-3-3β 1.2207e-7 M, compound 100 μM): 3 and 6 and 2 | FP signal, 14-3-3β titration ([3]; 14-3-3β 2.44141e-7 M, FC-A + CY compound): 16 and 15 and 11 | FP signal, 14-3-3β titration ([3]; 14-3-3β 2.44141e-7 M, compound 100 μM): 7 and 3 and 1 | FP signal, 14-3-3β titration ([3]; 14-3-3β 4.88281e-7 M, FC-A + CY compound): 18 and 25 and 20 | FP signal, 14-3-3β titration ([3]; 14-3-3β 4.88281e-7 M, compound 100 μM): 9 and 4 (2×) | FP signal, 14-3-3β titration ([3]; 14-3-3β 9.76563e-7 M, FC-A + CY compound): 36 and 40 and 38 | FP signal, 14-3-3β titration ([3]; 14-3-3β 9.76563e-7 M, compound 100 μM): 9 and 11 and 10 | FP signal, 14-3-3β titration ([3]; 14-3-3β 1.95313e-6 M, FC-A + CY compound): 52 and 57 and 55 | FP signal, 14-3-3β titration ([3]; 14-3-3β 1.95313e-6 M, compound 100 μM): 11 (2×) and 13 | FP signal, 14-3-3β titration ([3]; 14-3-3β 3.90625e-6 M, FC-A + CY compound): 75 and 77 and 73 | FP signal, 14-3-3β titration ([3]; 14-3-3β 3.90625e-6 M, compound 100 μM): 25 and 27 and 24 | FP signal, 14-3-3β titration ([3]; 14-3-3β 7.8125e-6 M, FC-A + CY compound): 105 (2×) and 102 | FP signal, 14-3-3β titration ([3]; 14-3-3β 7.8125e-6 M, compound 100 μM): 44 and 43 and 34 | FP signal, 14-3-3β titration ([3]; 14-3-3β 1.5625e-5 M, FC-A + CY compound): 123 and 125 and 121 | FP signal, 14-3-3β titration ([3]; 14-3-3β 1.5625e-5 M, compound 100 μM): 59 and 58 and 51 | FP signal, 14-3-3β titration ([3]; 14-3-3β 3.125e-5 M, FC-A + CY compound): 141 (2×) and 139 | FP signal, 14-3-3β titration ([3]; 14-3-3β 3.125e-5 M, compound 100 μM): 76 (2×) and 79 | FP signal, 14-3-3β titration ([3]; 14-3-3β 6.25e-5 M, FC-A + CY compound): 152 and 151 and 156 | FP signal, 14-3-3β titration ([3]; 14-3-3β 6.25e-5 M, compound 100 μM): 97 (2×) and 95 | FP signal, 14-3-3β titration ([3]; 14-3-3β 0.000125 M, FC-A + CY compound): 161 and 159 and 162 | FP signal, 14-3-3β titration ([3]; 14-3-3β 0.000125 M, compound 100 μM): 113 and 114 and 116 | Fluorescence polarization signal, 14-3-3β titration ([3]; CY compound (100 μM), 14-3-3β concentration 0.00025 M): 132 and 131 and 127 | Fluorescence polarization signal, 14-3-3β titration ([3]; CY compound (100 μM), 14-3-3β concentration 0.0005 M): 146 and 152 | Fluorescence polarization signal, 14-3-3β titration ([3]; FC-A + CY compound, 14-3-3β concentration 0.00025 M): 166 and 162 | Fluorescence polarization signal, 14-3-3β titration ([3]; FC-A + CY compound, 14-3-3β concentration 0.0005 M): 175 and 173 and 177
